What is called inhibition is the relative decrease from the control value, in per cent.

Drawing on patent publication US20120270237A9, “METHODS FOR THE IDENTIFICATION OF KINASE INTERACTING MOLECULES AND FOR THE PURIFICATION OF KINASE PROTEINS” (Cellzone AG, priority 2009, published 2012), this text covers inhibition and Competition % for one compound.

Common to all, as to assay: Kinobeads competition binding, HL60 cell lysate
Common to all, as to design: endogenous in cells
Holding throughout (settings): 10 μM free compound

Assay [1] addresses PYK2 (Homo sapiens, UniProt Q14289). The protocol: (§1) To one aliquot of cell lysate 10 μM of the free compound (FIG. 3, CZC31326) was added and allowed to bind to proteins in the lysate. Then the affinity matrix with the immobilized compound (Example 1) was added to capture proteins that were not interacting with the previously added free compound. Beads were separated from the lysate and bead bound proteins were eluted in SDS sample buffer and subsequently separated by SDS-Polyacrylamide gel electrophoresis (FIG. 4). Suitable gel bands were cut out and subjected to in-gel proteolytic digestion with trypsin. The second lysate aliquot was processed identically, however no free compound was added (DMSO solvent control). Peptides originating from samples 1 and 2 were labeled with iTRAQ reagents (iTRAQ 114 and iTRAQ 117) and the combined samples were analyzed with a nano-flow liquid chromatography system coupled online to a tandem mass spectrometer (LC-MS/MS) experiment followed by iTRAQ reporter ion quantification in the MS/MS spectra (Ross et al., 2004. Mol. Cell. Proteomics 3(12):1154-1169). Further experimental protocols can be found in WO2006/134056 and a previous publication (Bantscheff et al., 2007. Nature Biotechnology 25, 1035-1044). Sepharose-beads with the immobilized compound (100 μl beads per pull-down experiment) were equilibrated in lysis buffer and incubated with a cell lysate sample containing 50 mg of protein on an end-over-end shaker (Roto Shake Genie, Scientific Industries Inc.) for 2 hours at 4° C. Beads were collected, transferred to Mobicol-columns (MoBiTech 10055) and washed with 10 ml lysis buffer containing 0.4% NP40 detergent, followed by 5 ml lysis buffer containing 0.2% detergent. To elute bound proteins, 60 μl 2×SDS sample buffer was added to the column. The column was incubated for 30 minutes at 50° C. and the eluate was transferred to a siliconized microfuge tube by centrifugation. Proteins were then alkylated with 108 mM iodoacetamid. Proteins were then separated by SDS-Polyacrylamide electrophoresis (SDS-PAGE). The peptide extracts of samples treated with 10 μM of free compound (CZC31326) and the solvent control (0.5% DMSO) were treated with different variants of the isobaric tagging reagent (iTRAQ Reagents Multiplex Kit, part number 4352135, Applied Biosystems, Foster City, Calif., USA). The iTRAQ reagents are a set of multiplexed, amine-specific, stable isotope reagents that can label peptides on amino groups in up to four different biological samples enabling simultaneous identification and quantitation of peptides. The iTRAQ reagents were used according to instructions provided by the manufacturer. The samples were resuspended in 10 μl 50 mM TEAB solution, pH 8.5 and 10 μl ethanol were added. The iTRAQ reagent was dissolved in 120 μl ethanol and 10 μl of reagent solution were added to the sample. The labeling reaction was performed at room temperature for one hour on a horizontal shaker and stopped by adding 5 μl of 100 mM TEAB and 100 mM glycine in water. The two labeled sampled were then combined, dried in a vacuum centrifuge and resuspended in 10 μl of 0.1% formic acid in water. Relative protein quantitation was performed using peak areas of iTRAQ reporter ion signals essentially as described in an earlier publication (Bantscheff et al., 2007. Nature Biotechnology 25, 1035-1044).

Assay [2] deals with IRE1 (Homo sapiens, UniProt O75460). The protocol: as §1
Assay [3] concerns the target CDK9 (Homo sapiens, UniProt P50750). The protocol: as §1
Assay [4] addresses JAK1 (Homo sapiens, UniProt P23458). The protocol: as §1
Assay [5] concerns the target PLK1 (Homo sapiens, UniProt P53350). The method, then:
as §1

The target in assay [6] is AAK1 (Homo sapiens, UniProt Q2M2I8). The protocol: as §1
The target of assay [7] is YES (Homo sapiens, UniProt P07947). The method, then: as §1
Assay [8] concerns the target MAP3K1 (Homo sapiens, UniProt Q13233). The method, then: as §1
Assay [9] concerns the target PKCa (Homo sapiens, UniProt P17252). The method, then: as §1
Assay [10] has as its target T1, IKKe (Homo sapiens, UniProt Q14164).
T1 sequence (Q14164 1-716): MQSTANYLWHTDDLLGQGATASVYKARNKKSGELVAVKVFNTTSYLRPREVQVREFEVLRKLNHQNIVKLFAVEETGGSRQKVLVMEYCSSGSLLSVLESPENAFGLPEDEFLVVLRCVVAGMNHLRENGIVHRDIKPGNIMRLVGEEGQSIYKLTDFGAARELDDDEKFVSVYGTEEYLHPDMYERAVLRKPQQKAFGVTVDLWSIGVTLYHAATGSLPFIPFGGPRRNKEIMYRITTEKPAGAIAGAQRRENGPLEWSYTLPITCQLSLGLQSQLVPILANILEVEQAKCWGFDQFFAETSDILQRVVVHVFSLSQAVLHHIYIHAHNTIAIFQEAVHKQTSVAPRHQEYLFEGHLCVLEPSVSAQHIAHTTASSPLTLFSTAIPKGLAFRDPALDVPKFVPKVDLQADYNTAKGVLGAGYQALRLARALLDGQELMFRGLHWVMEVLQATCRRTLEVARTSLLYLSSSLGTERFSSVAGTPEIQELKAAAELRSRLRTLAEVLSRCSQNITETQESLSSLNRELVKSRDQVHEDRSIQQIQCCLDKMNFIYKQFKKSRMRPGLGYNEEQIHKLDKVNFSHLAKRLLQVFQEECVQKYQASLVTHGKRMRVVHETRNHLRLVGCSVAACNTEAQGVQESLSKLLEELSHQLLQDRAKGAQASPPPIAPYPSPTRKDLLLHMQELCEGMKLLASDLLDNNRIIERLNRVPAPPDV
The method, then: as §1

Assay [11] addresses CK2a2 (Homo sapiens, UniProt P19784). The method, then:
as §1

Assay [12] addresses SLK (Homo sapiens, UniProt Q9H2G2). The method, then: as §1

For the compound `CS(=O)(=O)Nc1ccccc1Nc1nc(Nc2cccc(OCCN)c2)ncc1Cl` [CZC31326, N-(2-(2-(3-(2-aminoethoxy)phenylamino)-5-chloropyrimidin-4-ylamino)phenyl)methanesulfonamide], the inhibition at 10 µM in assay [1] is 95.7%; in assay [2], 95.1%; in [3], 98.2%; in [5], 97.8%; in assay [6], 97.8%; in [7], 91.1%. The inhibition at 10 µM in assay [8] was found to be 87%; in assay [9], 96.2%; in assay [10], 91.4%; in [11], 97.7%; in assay [12], 97.5%. This compound also came in with a Competition % in [4] of 97.8%.
